We go through 26 compounds from patent publication US11214564B2, “Compounds with thymine skeleton for use in medicine” (TECHNISCHE UNIVERSITÄT DRESDEN, priority 2019, dated 2022).

The target in the experiment is HSP27 (Homo sapiens, UniProt P04792). Nature of the experiment: Aggregation assay: HSP27 chaperone activity on heat-induced aggregation of citrate synthase. The class given is biochemical. The conditions noted are these: compound 10 μM; 1.44 μM CS, 481 nM HSP27, 43° C., 500 nm. The protocol: To test how small molecules affect the chaperone activity of HSP27, misfolding and aggregation of citrate synthase (CS), a well-known in vitro client protein of HSP27, was measured. Citrate synthase misfolds and aggregates when exposed to heat shock at 43° C. This heat denaturation is prevented or delayed in the presence of HSP27 (CS+HSP27) (Jakob et al. (1993)). […] The samples were incubated at 43° C. and the aggregation behavior of CS was monitored in a spectrometer (PerkinElmer LS55) at a wavelength of 500 nm. Substances inhibiting HSP27's chaperone activity lead to continued denaturation of the client protein and its aggregation in solution. This inhibition correlates with the strength of the interaction between HSP27 and the test substance, which is related to its binding efficiency.
HSP27, sequence (P04792 whole entry): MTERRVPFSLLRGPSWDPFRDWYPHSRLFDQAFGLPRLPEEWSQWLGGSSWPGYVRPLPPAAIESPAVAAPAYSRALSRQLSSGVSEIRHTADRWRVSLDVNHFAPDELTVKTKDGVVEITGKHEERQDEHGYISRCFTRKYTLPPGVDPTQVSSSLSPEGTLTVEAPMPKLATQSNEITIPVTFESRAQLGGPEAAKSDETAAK
In the reference experiment BVDU (CS+HSP27+BVDU) was tested at a concentration of 750 μM as previously described (Heinrich et al. (2016)).
The compounds according to the invention were tested at a concentration of 10 μM.
Take `Cc1ccc(-c2cccc(CC(=O)Nc3ccc(-n4ccc(=O)[nH]c4=O)cc3)c2)cc1Cl` [Compound 29, 2-(3′-chloro-4′-methyl-[1,1′-biphenyl]-3-yl)-N-(4-(2,4-dioxo-3,4-dihydro-pyrimidin-1(2H)-yl)phenyl) acetamide]: the “aggregation value related to the value from reference experiment (CS + HSP27 + BVDU), which was set at 1.0” value (“aggregation value related to the value” below) is on record as 0.8.

For the compound `COc1ccc(-c2cccc(CC(=O)Nc3ccc(-n4cc(Cl)c(=O)[nH]c4=O)cc3)c2)cc1Cl` [Compound 30, N-(4-(5-chloro-2,4-dioxo-3,4-dihydro-pyrimidin-1(2H)-yl)phenyl)-2-(3′-chloro-4′-methoxy-[1,1′-biphenyl]-3-yl)acetamide], the “aggregation value related to the value” value was determined as 0.79.

Consider `COc1ccc(-c2cccc(CC(=O)Nc3ccc(-n4cc(C)c(=O)[nH]c4=O)cc3)c2)cc1` [Compound 31, 2-(4′-methoxy-[1,1′-biphenyl]-3-yl)-N-(4-(5-methyl-2,4-dioxo-3,4-dihydro-pyrimidin-1(2H)-yl)phenyl) acetamide], for which the “aggregation value related to the value” value is on record as 0.78.

`O=C(Cc1cccc(-c2ccc(Cl)c(Cl)c2)c1)Nc1ccc(-n2ccc(=O)[nH]c2=O)cc1F` [Compound 32, 2-(3′,4′-dichloro-[1,1′-biphenyl]-3-yl)-N-(4-(2,4-dioxo-3,4-dihydro-pyrimidin-1(2H)-yl)-2-fluoro-phenyl)acetamide]: the “aggregation value related to the value” value is listed as 0.76.

Take `Cc1cccc(-c2cccc(CC(=O)Nc3ccc(-n4ccc(=O)[nH]c4=O)cc3)c2)c1` [Compound 33, N-(4-(2,4-dioxo-3,4-dihydro-pyrimidin-1(2H)-yl)phenyl)-2-(3′-methyl-[1,1′-biphenyl]-3-yl) acetamide]: the “aggregation value related to the value” value is given as 0.69.

Take `O=C(Nc1ccc(Cn2ccc(=O)[nH]c2=O)cc1)c1cccc(-c2ccc(Cl)c(Cl)c2)c1` [Compound 34, 3′,4′-dichloro-N-(4-((2,4-dioxo-3,4-dihydro-pyrimidin-1(2H)-yl)methyl)phenyl)-[1,1′-biphenyl]-3-carboxamide]: the “aggregation value related to the value” value is listed as 1.8.

Take `O=C(Nc1ccc(Cn2ccc(=O)[nH]c2=O)cc1)c1cccc(-c2cccc(OC(F)(F)F)c2)c1` [Compound 35, N-(4-((2,4-dioxo-3,4-dihydro-pyrimidin-1(2H)-yl)methyl)phenyl)-3′-(trifluoro-methoxy)-[1,1′-biphenyl]-3-carboxamide]: the “aggregation value related to the value” value is 1.55.

`O=C(Nc1ccc(Cn2ccc(=O)[nH]c2=O)cc1)c1cccc(-c2cccc(Cl)c2)c1` [Compound 36, 3′-chloro-N-(4-((2,4-dioxo-3,4-dihydro-pyrimidin-1(2H)-yl)methyl)phenyl)-[1,1′-biphenyl]-3-carboxamide]: the “aggregation value related to the value” value worked out at 1.23.

Regarding `COc1ccc(-c2cccc(C(=O)Nc3ccc(Cn4ccc(=O)[nH]c4=O)cc3)c2)cc1Cl` [Compound 37, 3′-chloro-N-(4-((2,4-dioxo-3,4-dihydro-pyrimidin-1(2H)-yl)methyl)phenyl)-4′-methoxy-[1,1′-biphenyl]-3-carboxamide], the “aggregation value related to the value” value is on record as 0.91.

On to `O=C(Cc1cccc(-c2cccc(OC(F)(F)F)c2)c1)Nc1cccc(-n2ccc(=O)[nH]c2=O)c1` [Compound 39, N-(3-(2,4-dioxo-3,4-dihydro-pyrimidin-1(2H)-yl)phenyl)-2-(3′-(trifluoro-methoxy)-[1,1′-biphenyl]-3-yl) acetamide], for which the “aggregation value related to the value” value is on record as 1.21.

Consider `O=C(Cc1cccc(-c2ccc(Cl)c(Cl)c2)c1)Nc1cccc(-n2ccc(=O)[nH]c2=O)c1` [Compound 40, 2-(3′,4′-dichloro-[1,1′-biphenyl]-3-yl)-N-(3-(2,4-dioxo-3,4-dihydro-pyrimidin-1(2H)-yl)phenyl) acetamide], for which the “aggregation value related to the value” value came to 1.8.

As to `COc1ccc(-c2cccc(CC(=O)Nc3cccc(-n4ccc(=O)[nH]c4=O)c3)c2)cc1Cl` [Compound 41, 2-(3′-chloro-4′-methoxy-[1,1′-biphenyl]-3-yl)-N-(3-(2,4-dioxo-3,4-dihydro-pyrimidin-1(2H)-yl)phenyl) acetamide], the “aggregation value related to the value” value was 1.24.

In the case of `Cc1cccc(-c2cccc(C(=O)Nc3ccc(-n4ccc(=O)[nH]c4=O)cc3)c2)c1` [Compound 42, N-(4-(2,4-dioxo-3,4-dihydro-pyrimidin-1(2H)-yl)phenyl)-3′-methyl-[1,1′-biphenyl]-3-carboxamide], the “aggregation value related to the value” value is listed as 0.66.

As to `O=C(Nc1ccc(-n2ccc(=O)[nH]c2=O)cc1)c1cccc(-c2cccc(Cl)c2)c1` [Compound 43, 3′-chloro-N-(4-(2,4-dioxo-3,4-dihydro-pyrimidin-1(2H)-yl)phenyl)-[1,1′-biphenyl]-3-carboxamide], the “aggregation value related to the value” value is on record as 0.79.

For `COc1ccc(-c2cccc(C(=O)Nc3ccc(-n4ccc(=O)[nH]c4=O)cc3)c2)cc1Cl` [Compound 44, 3′-chloro-N-(4-(2,4-dioxo-3,4-dihydro-pyrimidin-1(2H)-yl)phenyl)-4′-methoxy-[1,1′-biphenyl]-3-carboxamide], the “aggregation value related to the value” value is recorded as 0.83.

Regarding `COc1ccc(-c2cccc(C(=O)Nc3ccc(-n4cc(C)c(=O)[nH]c4=O)cc3)c2)cc1Cl` [Compound 45, 3′-chloro-4′-methoxy-N-(4-(5-methyl-2,4-dioxo-3,4-dihydro-pyrimidin-1(2H)-yl)phenyl)-[1,1′-biphenyl]-3-carboxamide], the “aggregation value related to the value” value is 0.88.

Take `COc1cccc(-c2cccc(C(=O)Nc3ccc(-n4cc(C)c(=O)[nH]c4=O)cc3)c2)c1` [Compound 46, 3′-methoxy-N-(4-(5-methyl-2,4-dioxo-3,4-dihydro-pyrimidin-1(2H)-yl)phenyl)-[1,1′-biphenyl]-3-carboxamide]: the “aggregation value related to the value” value is 0.75.

With `Cc1cn(-c2ccc(NC(=O)c3cccc(-c4cccc(OC(F)(F)F)c4)c3)cc2)c(=O)[nH]c1=O` [Compound 47, N-(4-(5-methyl-2,4-dioxo-3,4-dihydro-pyrimidin-1(2H)-yl)phenyl)-3′-(trifluoro-methoxy)-[1,1′-biphenyl]-3-carboxamide], the “aggregation value related to the value” value stood at 1.46.

`O=C(Nc1ccc(-n2cc(Cl)c(=O)[nH]c2=O)cc1)c1cccc(-c2cccc(OC(F)(F)F)c2)c1` [Compound 48, N-(4-(5-chloro-2,4-dioxo-3,4-dihydro-pyrimidin-1(2H)-yl)phenyl)-3′-(trifluoro-methoxy)-[1,1′-biphenyl]-3-carboxamide]: the “aggregation value related to the value” value is 0.7.

In the case of `Cc1ccc(-c2cccc(C(=O)Nc3ccc(-n4cc(C)c(=O)[nH]c4=O)cc3)c2)cc1Cl` [Compound 49, 3′-chloro-4′-methyl-N-(4-(5-methyl-2,4-dioxo-3,4-dihydro-pyrimidin-1(2H)-yl)phenyl)-[1,1′-biphenyl]-3-carboxamide], the “aggregation value related to the value” value amounted to 1.16.

In the case of `Cc1ccc(-c2cccc(C(=O)Nc3ccc(-n4ccc(=O)[nH]c4=O)cc3)c2)cc1Cl` [Compound 50, 3′-chloro-N-(4-(2,4-dioxo-3,4-dihydro-pyrimidin-1(2H)-yl)phenyl)-4′-methyl-[1,1′-biphenyl]-3-carboxamide], the “aggregation value related to the value” value came out at 0.73.

Take `O=C(Cc1cccc(-c2ccc(Cl)c(Cl)c2)c1)Nc1ccc(-n2cc(Cl)c(=O)[nH]c2=O)cc1` [Compound 51, N-(4-(5-chloro-2,4-dioxo-3,4-dihydro-pyrimidin-1(2H)-yl)phenyl)-2-(3′,4′-dichloro-[1,1′-biphenyl]-3-yl)acetamide]: the “aggregation value related to the value” value is 0.73.

On to `O=C(Cc1cn(-c2ccc(-n3ccc(=O)[nH]c3=O)cc2)nn1)Nc1ccc(Cl)c(Cl)c1` [Compound 52, N-(3,4-dichlorophenyl)-2-(1-(4-(2,4-dioxo-3,4-dihydropyrimidin-1(2H)-yl)phenyl)-1H-1,2,3-triazol-4-yl)acetamide], for which the “aggregation value related to the value” value is recorded as 1.

Consider `O=C(Cc1cn(-c2ccc(-n3ccc(=O)[nH]c3=O)cc2)nn1)NCc1ccc(Cl)c(Cl)c1` [Compound 53], for which the “aggregation value related to the value” value was 1.67.

For the compound `O=C(NCc1cn(-c2ccc(-n3ccc(=O)[nH]c3=O)cc2)nn1)c1ccc(Cl)c(Cl)c1` [Compound 54, 3,4-Dichloro-N-((1-(4-(2,4-dioxo-3,4-dihydropyrimidin-1(2H)-yl)phenyl)-1H-1,2,3-triazol-4-yl)methyl)benzamide], the “aggregation value related to the value” value is recorded as 1.42.

For `O=C(Cc1ccc(Cl)c(Cl)c1)NCc1cn(-c2ccc(-n3ccc(=O)[nH]c3=O)cc2)nn1` [Compound 55, 2-(3,4-Dichlorophenyl)-N-((1-(4-(2,4-dioxo-3,4-dihydropyrimidin-1(2H)-yl)phenyl)-1H-1,2,3-triazol-4-yl)methyl)acetamide], the “aggregation value related to the value” value is given as 1.05.
